Test results as given in US20250034601A1, “HETERODIMERIC BENZALDEHYDE SYNTHASE, METHODS OF PRODUCING, AND USES THEREOF” (Purdue Research Foundation, priority 2021, published 2025).

Experiments:
[1] = test system: pds-bsα-bsβ VIGS petunia flowers; assay: Emission of volatiles from pds-bsα-bsβ VIGS petunia flowers; format: in vivo, Petunia hybrida; settings: 2-day-old VIGS flowers, volatiles collected 20:00 to 21:00, n=6
Method: Petunia hybrida cv. Mitchell diploid (W115, Ball Seed Co., Oxford, Canada) plants were grown under standard greenhouse condition with a light period from 6:00 to 21:00 hour. To link the simultaneous downregulation of PhBSα and PhBSβ6 genes via virus induced gene silencing (VIGS) to the silencing of a marker gene, a previously generated pTRV2-PDS construct containing a 300 bp fragment of Nicotiana benthamiana Phytoene Desaturase (PDS) (CDS nucleotides 580˜879; SEQ ID NO: 11) was used (deposited with the National Center for Biotechnology Information (NCBI) GenBank and having the accession number DQ469932.1 (accepted Dec. 4, 2007)). See Spitzer et al., Reverse genetics of floral scent: Application of tobacco rattle virus-based gene silencing in petunia, Plant Physiology 145: 1241-1250 (2007). The N. benthamiana PDS fragment shared 94.3% sequence identity with P. axillaris PDS gene.
Next, a 301 bp fragment of PhBSα (CDS nucleotides 3˜303 of SEQ ID NO: 3) and a 301 bp fragment of PhBSβ6 (CDS nucleotides 3˜303 of SEQ ID NO: 4) were tandemly cloned downstream of the PDS fragment in a pTRV2-PDS plasmid using ClonExpress II One Step Cloning Kit (Vazyme Biotech Co., Piscataway, NJ), yielding the final construct pTRV2-PDS-PhBSαp.
All binary vectors, including pTRV1, deposited with the NCBI GenBank and having accession number AF406990 (accepted Jun. 11, 2002), pTRV2-PDS and pTRV2-PDS-PhBSαp, were transformed into Agrobacterium tumefaciens strain GV3101. Single colonies for each construct were cultured at 28° C. in Luria-Bertani (LB) medium containing 50 mg/L rifampicin, 50 mg/L gentamycin, and 50 mg/L kanamycin to an optical density at a wavelength of 600 nm (OD600) of 2.4.
Cells were pelleted, washed with infiltration buffer (50 mM MES, pH 5.7, 2 mM Na3PO4, 0.5% glucose and 200 μM acetosyringone), and incubated in the same buffer for 2 hours at room temperature. Yoo et al., An alternative pathway contributes to phenylalanine biosynthesis in plants via a cytosolic tyrosine:phenylpyruvate aminotransferase, Nature Communications 4: 2833 (2013). […]
Petunia flower volatiles were collected by a closed-loop stripping method and analyzed by gas chromatography mass spectrometry (GC-MS) as described in Qian et al., Completion of the cytosolic post-chorismate phenylalanine biosynthetic pathway in plants, Nature Communications 10: 15 (2019), with minor modifications. […] The extracts were pooled together and concentrated to about 200 μL under a mild stream of nitrogen gas, and samples were analyzed on an Agilent 7890B-5977B gas chromatography mass spectrometry (GC-MS) system (Agilent Technologies, Inc., Santa Clara, CA) using an analytical method translated from an established method with the Agilent 6890N-5975B GC-MS system as previously described. […]

[2] = test system: benzaldehyde synthase (BS) activity in petunia flower crude protein extracts; assay: BS activity in petunia flower crude protein extracts with different substrates and cofactors (GC-MS); format: biochemical, Petunia hybrida; settings: substance supplied as cofactor with benzoyl-CoA or in place of benzoyl-CoA; 30 minutes at 28° C.
Method: The crude protein extracts were obtained by extraction of petunia petal tissue with buffer A (3:1 [v/w] buffer/tissue). After centrifugation of slurry at 15,000 g for 20 minutes, the supernatant was desalted with Econo-Pac 10DG Columns (Bio-Rad, Hercules, CA) according to the manufacturer's protocol and 20 μL of desalted protein was used in the activity assays. The reaction was performed for 30 minutes at 28° C. and the product was extracted with 200 μL DCM containing 1 μg naphthalene (internal standard). After centrifugation at 15,000 g for 20 minutes, 2 μL of the bottom DCM phase was injected in GC-MS, with results shown in FIG. 3A. The compounds labeled in FIG. 3A with numbers are (1) benzaldehyde, (2) benzylalcohol, (3) internal standard (naphthalene), and (4) benzylbenzoate and the different assay mixtures described above are identified with their above-associated letters.

[3] = biological target: T1, Solanum lycopersicum (tomato) benzaldehyde synthase (SlBS), recombinant heterodimer SlBSα (SEQ ID NO: 7) / SlBSβ (SEQ ID NO: 10), wild type, MBP-tagged (Solanum lycopersicum, UniProt A0A3Q7HAN1+A0A3Q7ILR9); assay: Kinetic parameters of recombinant SlBS (BS activity assay, HPLC; benzoyl-CoA + NADPH to benzaldehyde); format: biochemical; settings: measured at 4 mM NADPH; pH 6.5, 28° C.
T1 sequence (A0A3Q7ILR9 with tags, fused parts or gaps): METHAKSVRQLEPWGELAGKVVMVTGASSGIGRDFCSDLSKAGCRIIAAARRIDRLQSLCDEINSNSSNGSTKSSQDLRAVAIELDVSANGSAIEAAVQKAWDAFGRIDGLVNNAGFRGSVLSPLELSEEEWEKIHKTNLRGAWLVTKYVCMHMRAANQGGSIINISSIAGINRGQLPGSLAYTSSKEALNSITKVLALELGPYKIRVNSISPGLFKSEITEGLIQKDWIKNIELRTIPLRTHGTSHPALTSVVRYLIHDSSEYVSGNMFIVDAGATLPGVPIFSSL
T1 sequence (A0A3Q7HAN1 1-266): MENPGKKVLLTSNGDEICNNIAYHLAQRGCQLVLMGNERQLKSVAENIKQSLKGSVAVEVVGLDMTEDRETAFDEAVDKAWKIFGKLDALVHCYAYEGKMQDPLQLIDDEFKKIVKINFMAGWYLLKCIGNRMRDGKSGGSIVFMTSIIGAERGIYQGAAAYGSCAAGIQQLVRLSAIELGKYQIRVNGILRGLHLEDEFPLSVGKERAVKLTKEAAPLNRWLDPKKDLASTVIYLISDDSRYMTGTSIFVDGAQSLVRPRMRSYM
Method: (§1) The reaction was initiated by adding a protein and incubated at 28° C. for 30 minutes, and the reactions were then terminated by adding 100 μL of 100% ice-cold methanol (MeOH). The BS enzyme assays were performed at an appropriate enzyme concentration so that reaction velocity was proportional to enzyme concentration and linear during the incubation time period. Km and Vmax were determined by non-linear fit to the Michaelis-Menten equation using Graphpad Prism, v8.2.0.
(§2) Triplicate assays were performed for all data points.
(§3) After centrifugation at 15,000 g for 20 minutes, 5 μL of the supernatant were subjected to high-performance liquid chromatography (HPLC) analysis using an Agilent 1260 Infinity II system (Agilent Technologies, Inc., Santa Clara, CA) equipped with an InfinityLab Poroshell 120 EC-C18 column (3.0×150 mm, 2.7 μm) maintained at 35° C. Products were separated with a 15-minute linear gradient of 10% aqueous acetonitrile solution to 100% acetonitrile and monitored at 248 nm using a diode array detector (DAD). Benzaldehyde was identified by comparing the retention time and absorption spectrum with authentic standard.
(§4) Quantitation was achieved by using standard curve generated from authentic standard and product verification was performed by GC-MS. Namely, crude protein extracts were obtained by extraction of petunia petal tissue with buffer A (3:1 [v/w] buffer/tissue). […]

[4] = test system: Petunia hybrida benzaldehyde synthase (PhBS), recombinant heterodimer PhBSα (SEQ ID NO: 1) / PhBSβ (SEQ ID NO: 2), wild type, MBP-tagged; assay: Kinetic parameters of recombinant PhBS (BS activity assay, HPLC; benzoyl-CoA + NADPH to benzaldehyde); format: biochemical; settings: measured at 4 mM NADPH
Method: as §1, §2, §3, §4

[5] = test system: Prunus dulcis (almond) benzaldehyde synthase (PdBS), recombinant heterodimer PdBSα (SEQ ID NO: 6) / PdBSβ (SEQ ID NO: 9), wild type, MBP-tagged; assay: Kinetic parameters of recombinant PdBS (BS activity assay, HPLC; benzoyl-CoA + NADPH to benzaldehyde); format: biochemical; settings: measured at 4 mM NADPH
Method: as §1, §2, §3
Quantitation was achieved by using standard curve generated from authentic standard and product verification was performed by GC-MS. Namely, crude protein extracts were obtained by extraction of petunia petal tissue with buffer A (3:1 [v/w] buffer/tissue). After centrifugation of slurry at 15,000 g for 20 minutes, the supernatant was desalted with Econo-Pac 10DG Columns (Bio-Rad Laboratories, Inc., Hercules, CA) according to the manufacturer's protocol and 20 μL of desalted protein was used in BS activity assays. The reaction was performed for 30 minutes at 28° C. and the product was extracted with 200 μL DCM containing 1 μg naphthalene (internal standard). After centrifugation at 15,000 g for 20 minutes, 2 μL of the bottom DCM phase was injected in GC-MS. […]

[6] = assuming one catalytic center per heterodimer of BS

Row | Molecule | reduction of emission in pds-bsα-bsβ flowers relative to pds control [1] [%] | benzaldehyde formation by crude extracts [2] | further results
1 | O=Cc1ccccc1 [Benzaldehyde (D5, 111), Benzaldehyde] | 68.3 |  | 
2 | OCc1ccccc1 [Benzylalcohol (D5, 113), Benzylalcohol] | 62.9 |  | 
3 | NC(=O)c1ccc[n+]([C@@H]2O[C@H](COP(=O)([O-])OP(=O)(O)OC[C@H]3O[C@@H](n4cnc5c(N)ncnc54)[C@H](OP(=O)(O)O)[C@@H]3O)[C@@H](O)[C@H]2O)c1 [NADP^+] |  | No benzaldehyde was formed | 
4 | NC(=O)c1ccc[n+]([C@@H]2O[C@H](COP(=O)([O-])OP(=O)(O)OC[C@H]3O[C@@H](n4cnc5c(N)ncnc54)[C@H](O)[C@@H]3O)[C@@H](O)[C@H]2O)c1 [NAD^+] |  | No benzaldehyde was formed | 
5 | O=CCc1ccccc1 [Phenylacetaldehyde (D7 + D8, 97 + 98), Phenylacetaldehyde] | 41.2 |  | 
6 | O=C(O)c1ccccc1 [benzoic acid] |  | No benzaldehyde was formed | 
7 | CC(C)(COP(=O)(O)OP(=O)(O)OC[C@H]1O[C@@H](n2cnc3c(N)ncnc32)[C@H](O)[C@@H]1OP(=O)(O)O)[C@@H](O)C(=O)NCCC(=O)NCCSC(=O)c1ccccc1 [benzoyl-CoA] |  |  | Vmax (benzoyl-CoA) [3]: 13.2 ± 3.0 nKat/mg; kcat (benzoyl-CoA) [4, 6]: 9.39 ± 0.40 s⁻¹; Vmax (benzoyl-CoA) ([4]; pH 6.5, 28° C.): 63.5 ± 2.7 nKat/mg; kcat (benzoyl-CoA) [5, 6]: 5.26 ± 0.20 s⁻¹; Vmax (benzoyl-CoA) ([5]; pH 6.5, 28° C.): 35.4 ± 1.3 nKat/mg; Km ([5]; read-out: Km for benzoyl-CoA, apparent, pH 6.5, 28° C.): 629 ± 67.7 µM
8 | O=C(OCc1ccccc1)c1ccccc1 [benzylbenzoate] | 35.6 |  | 
9 | O=C(O)C=Cc1ccccc1 [cinnamic acid] |  | No benzaldehyde was formed | 
10 | nicotinamide adenine dinucleotide phosphate [NADPH] |  | Efficient conversion of benzoyl-CoA to benzaldehyde | 
